Assay results: ChEMBL document CHEMBL1149146, “Synthesis and biological evaluation of new 1,2-dihydro-4-hydroxy-2-oxo-3-quinolinecarboxamides for treatment of autoimmune disorders: structure-activity relationship” (2004)
Calls of active or inactive are those of the source.

Columns and labels:
Mus musculus [1] = assay: Inhibition of acute experimental autoimmune encephalomyelitis (aEAE) induced in SJL/N mice at a dose of 1 mg/kg/day, (po) was determined; Inactive; type: functional
Mus musculus [2] = assay: Inhibition of acute experimental autoimmune encephalomyelitis (aEAE) induced in SJL/N mice at a dose of 5 mg/kg/day, (po) was determined; Inactive; type: functional
Mus musculus [3] = assay: Inhibition of acute experimental autoimmune encephalomyelitis (aEAE) induced in SJL/N mice at a dose of 5 mg/kg/day, (sc) was determined; type: functional
Mus musculus [4] = assay: Inhibition of acute experimental autoimmune encephalomyelitis (aEAE) in SJL/N mice at a dose of 1 mg/kg/day, (po/sc) was determined; type: functional
Mus musculus [5] = assay: Inhibition of acute experimental autoimmune encephalomyelitis (aEAE) in SJL/N mice at a dose of 5 mg/kg/day, (po/sc) was determined; type: functional
Mus musculus [6] = assay: Inhibition of acute experimental autoimmune encephalomyelitis in SJL/N mice by 0.2 mg/kg/day p.o./s.c.; type: functional; conditions: po
Mus musculus [7] = assay: Inhibition of acute experimental autoimmune encephalomyelitis (aEAE) induced in SJL/N mice at a dose of 0.2 mg/kg/day, (po) was determined; Inactive; type: functional
Mus musculus [8] = assay: Inhibition of acute experimental autoimmune encephalomyelitis (aEAE) induced in SJL/N mice at a dose of 1 mg/kg/day, (sc) was determined; Inactive; type: functional
Mus musculus [9] = assay: Inhibition of acute experimental autoimmune encephalomyelitis (aEAE) induced in SJL/N mice at a dose of 0.2 mg/kg/day, (sc) was determined; Inactive; type: functional
Mus musculus [10] = assay: Inhibition of acute experimental autoimmune encephalomyelitis (aEAE) induced in SJL/N mice at a dose of 5 mg/kg/day was determined; type: functional
Mus musculus [11] = assay: Inhibition of acute experimental autoimmune encephalomyelitis in SJL/N mice by 1 mg/kg/day p.o./s.c.; type: functional; conditions: route oral
Mus musculus [12] = assay: Inhibition of acute experimental autoimmune encephalomyelitis (aEAE) induced in SJL/N mice at a dose of 0.2 mg/kg/day, (po/sc) was determined; Inactive; type: functional
Mus musculus [13] = assay: Inhibition of acute experimental autoimmune encephalomyelitis in SJL/N mice by 5 mg/kg/day p.o./s.c.; type: functional; conditions: route oral
Mus musculus [14] = assay: Inhibition of acute experimental autoimmune encephalomyelitis (aEAE) induced in SJL/N mice at a dose of 1 mg/kg/day, (po); type: functional
Mus musculus [15] = assay: Inhibition of acute experimental autoimmune encephalomyelitis (aEAE) induced in SJL/N mice at a dose of 0.2 mg/kg/day, (po) was determined; Inactive <35% inhibition; type: functional, organism-based
Mus musculus [16] = assay: Inhibition of acute experimental autoimmune encephalomyelitis in SJL/N mice by 5 mg/kg/day p.o.; type: functional; conditions: route oral
Mus musculus [17] = assay: Inhibition of acute experimental autoimmune encephalomyelitis (aEAE) induced in SJL/N mice at a dose of 1 mg/kg/day, (po/sc) was determined; Inactive; type: functional
Mus musculus [18] = assay: Inhibition of acute experimental autoimmune encephalomyelitis (aEAE) induced in SJL/N mice at a dose of 5 mg/kg/day, (po/sc) was determined; Inactive; type: functional

SMILES: CN(C(=O)c1c(O)c2c(Oc3ccc(F)cc3)cccc2n(C)c1=O)c1ccccc1
- inhibition in vivo at 1 mg/kg/day (Mus musculus [1]): < 35%
- inhibition in vivo at 5 mg/kg/day (Mus musculus [2]): < 35%

SMILES: CCOc1ccc2c(c1)c(O)c(C(=O)N(C)c1ccc(F)cc1)c(=O)n2C
- inhibition in vivo at 5 mg/kg/day (Mus musculus [3]): 53%

SMILES: CN(C(=O)c1c(O)c2ccc(C(F)(F)F)cc2n(C)c1=O)c1ccc(F)cc1
- inhibition in vivo at 5 mg/kg/day (Mus musculus [3]): 35%

SMILES: CN(C(=O)c1c(O)c2ccccc2n(C)c1=O)c1ccccc1 [ROQUINIMEX]
- inhibition in vivo at 1 mg/kg/day (Mus musculus [4]): 43%
- inhibition in vivo at 5 mg/kg/day (Mus musculus [5]): 71%
- inhibition in vivo at 0.2 mg/kg/day (Mus musculus [6]): 35%

SMILES: CCN(C(=O)c1c(O)c2cc(C)ccc2n(C)c1=O)c1ccccc1
- inhibition in vivo at 1 mg/kg/day (Mus musculus [1]): < 35%
- inhibition in vivo at 0.2 mg/kg/day (Mus musculus [7]): < 35%

SMILES: COc1cccc2c1c(O)c(C(=O)N(C)c1cccc(F)c1F)c(=O)n2C
- inhibition in vivo at 1 mg/kg/day (Mus musculus [1]): < 35%
- inhibition in vivo at 0.2 mg/kg/day (Mus musculus [7]): < 35%

SMILES: CN(C(=O)c1c(O)c2cccc(F)c2n(C)c1=O)c1ccc(F)cc1
- inhibition in vivo at 1 mg/kg/day (Mus musculus [8]): < 35%
- inhibition in vivo at 0.2 mg/kg/day (Mus musculus [9]): < 35%
- inhibition in vivo at 5 mg/kg/day (Mus musculus [10]): 55%

SMILES: CCN(C(=O)c1c(O)c2cc(Cl)ccc2n(C)c1=O)c1ccccc1
- inhibition in vivo at 1 mg/kg/day (Mus musculus [11]): 62%
- inhibition in vivo at 0.2 mg/kg/day (Mus musculus [12]): < 35%
- inhibition in vivo at 5 mg/kg/day (Mus musculus [13]): 83%

SMILES: Cc1ccc2c(O)c(C(=O)N(C)c3ccccc3)c(=O)n(C)c2c1
- inhibition in vivo at 5 mg/kg/day (Mus musculus [3]): 53%

SMILES: CCc1ccc2c(c1)c(O)c(C(=O)N(CC)c1ccccc1)c(=O)n2C
- inhibition in vivo at 1 mg/kg/day (Mus musculus [1]): < 35%
- inhibition in vivo at 5 mg/kg/day (Mus musculus [2]): < 35%

SMILES: CCN(C(=O)c1c(O)c2c(C)cccc2n(C)c1=O)c1ccccc1
- inhibition in vivo at 1 mg/kg/day (Mus musculus [14]): 65%
- inhibition (Mus musculus [15]): inactive
- inhibition in vivo at 5 mg/kg/day (Mus musculus [16]): 85%

SMILES: CC(C)N(C(=O)c1c(O)c2c(Cl)cccc2n(C)c1=O)c1ccccc1
- inhibition in vivo at 1 mg/kg/day (Mus musculus [14]): 54%
- inhibition in vivo at 5 mg/kg/day (Mus musculus [16]): 70%
- inhibition in vivo at 0.2 mg/kg/day (Mus musculus [7]): < 35%

SMILES: CN(C)c1ccc2c(c1)c(O)c(C(=O)N(C)c1ccccc1)c(=O)n2C
- inhibition in vivo at 5 mg/kg/day (Mus musculus [2]): < 35%

SMILES: COc1ccc(N(C)C(=O)c2c(O)c3ccccc3n(C3CC3)c2=O)cc1
- inhibition in vivo at 1 mg/kg/day (Mus musculus [17]): < 35%
- inhibition in vivo at 5 mg/kg/day (Mus musculus [18]): < 35%

SMILES: COc1ccccc1N(C)C(=O)c1c(O)c2c(OC)cccc2n(C)c1=O
- inhibition in vivo at 1 mg/kg/day (Mus musculus [1]): < 35%
- inhibition in vivo at 0.2 mg/kg/day (Mus musculus [7]): < 35%
